{"source": "paper PMC8037814", "about": "“Polymorphic Characterization, Pharmacokinetics, and Anti-Inflammatory Activity of Ginsenoside Compound K Polymorphs” (Molecules, 2021)", "key": {"[1]": {"experiment": "Pharmacokinetics after intravenous administration of CK in rats (10 mg/kg)", "assay_type": "in vivo, Sprague-Dawley rats", "conditions": "male rats, i.v. 10 mg/kg; for MRT last: read-out: MRT(0-t); for half-life: read-out: t1/2z (converted)", "protocol": "All samples were analyzed with a triple quadrupole LC-MS/MS (API 4000 LC-MS/MS, AB Sciex, Framingham, MA, USA) coupled with an Agilent 1200 HPLC system (Agilent Technologies, Palo Alto, CA, USA). The MS was equipped with an electrospray system (ESI). The N2 gas temperature and ion-spray voltage were set to 550 °C and 4.5 kV, respectively. CK was measured in multiple reaction monitoring (MRM) mode using a negative electrospray ionization source at m/z 667.4 → 621.2 for CK (CID 25.6 v) and m/z 271.2 → 228.8 for internal standard (IS, (E)-5-(4-fluorostyryl)-2-isopropylbenzene-1,3-diol, Welichem Biotech Inc., Wayburne Drive Burnaby, BC, Canada) (CID 28.3 v) with a dwell time of 0.1 s.\nRats were divided randomly into 5 groups of six animals each (sex in half) and given 7 days to acclimatize to the facility before the experiments began. The four forms of CK were suspended in 0.5% sodium carboxymethyl cellulose (CMC-Na) solution and orally administered to rats at a dose of 20 mg/kg. A CK solution in a mixed solvent of dimethyl sulfoxide (DMSO)/castor oil/physiologic saline (3:5:92, v/v) was intravenously administered to the remaining group via the tail vein at a dose of 10 mg/kg. Blood samples were collected by retro-orbital puncture at the following times: 0.167, 0.333, 0.667, 1, 2, 3, 4, 6, 9, 12, and 24 h for the oral administration, and at 0.0083, 0.05, 0.133, 0.25, 0.5, 1, 2, 4, 6, and 9 h for the intravenous administration. Plasma samples were obtained by centrifuging a heparinized blood tube at 4000 rpm for 5 min and then stored at −70 °C until analysis.\nThe procedure for drug extraction from plasma samples was as follows: 0.2 mL acetonitrile, 0.2 mL plasma sample, and 10 μL IS (1 µg/mL) were added into a 1.5 mL Eppendorf-type tube. This mixture was vortexed for 1 min and then treated with 0.8 mL of methyl tert-butyl ether (MTBE) to precipitate the plasma proteins. After a mechanical vortex for 1 min and subsequent centrifugation (4000 rpm, 5 min), 0.8 mL of the supernatant was transferred and blow-dried with N2 at 40 °C in a water bath. Finally, the residue was dissolved in 120 μL of mobile phase, and then 10 μL was subjected to HPLC for analysis. […] Intra- and inter-day precision and accuracy never exceeded 15% by analyzing six replicate samples.\nThe CK pharmacokinetic parameters in rats, including the area under the curve (AUC(0–t) and AUC(0–∞)), mean residence time (MRT(0–t) and MRT(0–∞)), maximum concentration (Cmax), time to maximum concentration (Tmax), half-life (t1/2), apparent distribution volume (V), and total plasma clearance (CL), were derived from plasma concentration-time curves by using non-compartmental analysis (NCA) with DAS 2.0 software (Drug And Statistics, Mathematical Pharmacology Professional Committee of China, Shanghai, China). The absolute bioavailability (Fabs) was calculated from the dose-adjusted ratio of AUCp.o. to AUCi.v.. One-way analysis of variance (ANOVA) by SPSS 11.5 (SPSS Inc., Chicago, IL, USA) was conducted to compare the primary PK parameters."}, "[2]": {"conditions": "cited from earlier work"}, "[3]": {"conditions": "male, Sprague-Dawley, rat, plasma, iv, 10 mg/kg, Mean±SD, read-out: Plasma concentrations of CK"}, "[4]": {"conditions": "male, Sprague-Dawley, rat, plasma, iv, 10 mg/kg, individual rats 1-3, read-out: Plasma concentrations of CK"}, "[5]": {"conditions": "male, Sprague-Dawley, rat, plasma, iv, 10 mg/kg, Mean±SD"}, "[6]": {"conditions": "male, Sprague-Dawley, rat, plasma, iv, 10 mg/kg, individual rats 1-3"}}, "note": "Where “and” joins values, the source holds several entries; their conditions need not be identical. Equal entries are not always repeated. Where two headings read alike, the source gives them in different places."}
{"smiles": "CC(C)=CCCC(C)(OC1OC(CO)C(O)C(O)C1O)C1CCC2(C)C1C(O)CC1C3(C)CCC(O)C(C)(C)C3CCC12C", "note": "[CK, 20-O-β-D-glucopyranosyl-20(S)-protopanaxadiol]", "values": [{"measurement": "Plasma concentrations of CK", "setting": "[1]; 1 h, individual rats 1-3, 10 mg/kg", "value": "75.42 ng/mL and 107.64 ng/mL"}, {"measurement": "Plasma concentrations of CK", "setting": "[1]; 2 h, individual rats 1-3, 10 mg/kg", "value": "41.16 ng/mL and 54.90 ng/mL"}, {"measurement": "Plasma concentrations of CK", "setting": "[1]; 4 h, individual rats 1-3, 10 mg/kg", "value": "42.63 ng/mL and 32.27 ng/mL and 85.89 ng/mL"}, {"measurement": "Plasma concentrations of CK", "setting": "[1]; 6 h, individual rats 1-3, 10 mg/kg", "value": "14.03 ng/mL and 27.30 ng/mL"}, {"measurement": "Plasma concentrations of CK", "setting": "[1]; 9 h, individual rats 1-3, 10 mg/kg", "value": "11.73 ng/mL and 16.36 ng/mL"}, {"measurement": "CLz/F", "setting": "[1]; Mean±SD", "value": "90 ± 18", "unit": "mL/min/kg"}, {"measurement": "Vz/F", "setting": "[1]; Mean±SD", "value": "24.21 ± 7.69", "unit": "L/kg"}, {"measurement": "AUC(0-t)", "setting": "[1]; individual rats 1-3, 10 mg/kg", "value": "2963.73 ng·h/mL and 3980.16 ng·h/mL"}, {"measurement": "AUC(0-∞)", "setting": "[1]; individual rats 1-3, 10 mg/kg", "value": "3012.98 ng·h/mL and 4074.46 ng·h/mL"}, {"measurement": "CLz/F", "setting": "[1]; individual rats 1-3, 10 mg/kg", "value": "77.7 mL/min/kg and 111 mL/min/kg and 81.8 mL/min/kg"}, {"measurement": "MRT(0-t)", "setting": "[1]; individual rats 1-3, 10 mg/kg", "value": "19.2 min and 27.2 min"}, {"measurement": "MRT(0-∞)", "setting": "[1]; individual rats 1-3, 10 mg/kg", "value": "22.8 min and 32.4 min and 47.4 min"}, {"measurement": "Vz/F", "setting": "[1]; individual rats 1-3, 10 mg/kg", "value": "15.34 L/kg and 28.92 L/kg and 28.37 L/kg"}, {"measurement": "t1/2z", "setting": "[1]; individual rats 1-3, 10 mg/kg", "value": "181 min and 241 min"}, {"measurement": "concentration at 0.5 min", "setting": "[1]; [3]", "value": "71700 ± 5620", "unit": "ng/mL"}, {"measurement": "concentration at 0.5 min", "setting": "[1]; [4]", "value": 78100, "unit": "ng/mL"}, {"measurement": "concentration at 0.05 h", "setting": "[1]; [3]", "value": "17100 ± 5230", "unit": "ng/mL"}, {"measurement": "concentration at 0.05 h", "setting": "[1]; [4]", "value": 21700, "unit": "ng/mL"}, {"measurement": "concentration at 8 min", "setting": "[1]; male, Sprague-Dawley, rat, plasma, iv, 10 mg/kg, 8 min, Mean±SD, read-out: Plasma concentrations of CK", "value": "2280 ± 940", "unit": "ng/mL"}, {"measurement": "concentration at 0.25 h", "setting": "[1]; [3]", "value": "1080 ± 359", "unit": "ng/mL"}, {"measurement": "concentration at 0.25 h", "setting": "[1]; [4]", "value": 1260, "unit": "ng/mL"}, {"measurement": "concentration at 0.5 h", "setting": "[1]; [3]", "value": "333 ± 103", "unit": "ng/mL"}, {"measurement": "concentration at 0.5 h", "setting": "[1]; [4]", "value": 393, "unit": "ng/mL"}, {"measurement": "concentration at 1 h", "setting": "[1]; male, Sprague-Dawley, rat, plasma, iv, 10 mg/kg, 1 h, Mean±SD, read-out: Plasma concentrations of CK", "value": "95.5 ± 17.5", "unit": "ng/mL"}, {"measurement": "concentration at 1 h", "setting": "[1]; male, Sprague-Dawley, rat, plasma, iv, 10 mg/kg, 1 h, individual rats 1-3, read-out: Plasma concentrations of CK", "value": 103, "unit": "ng/mL"}, {"measurement": "concentration at 2 h", "setting": "[1]; male, Sprague-Dawley, rat, plasma, iv, 10 mg/kg, 2 h, Mean±SD, read-out: Plasma concentrations of CK", "value": "52.1 ± 9.87", "unit": "ng/mL"}, {"measurement": "concentration at 2 h", "setting": "[1]; male, Sprague-Dawley, rat, plasma, iv, 10 mg/kg, 2 h, individual rats 1-3, read-out: Plasma concentrations of CK", "value": 60.3, "unit": "ng/mL"}, {"measurement": "concentration at 4 h", "setting": "[1]; male, Sprague-Dawley, rat, plasma, iv, 10 mg/kg, 4 h, Mean±SD, read-out: Plasma concentrations of CK", "value": "53.6 ± 28.4", "unit": "ng/mL"}, {"measurement": "concentration at 6 h", "setting": "[1]; male, Sprague-Dawley, rat, plasma, iv, 10 mg/kg, 6 h, Mean±SD, read-out: Plasma concentrations of CK", "value": "20.3 ± 6.66", "unit": "ng/mL"}, {"measurement": "concentration at 6 h", "setting": "[1]; male, Sprague-Dawley, rat, plasma, iv, 10 mg/kg, 6 h, individual rats 1-3, read-out: Plasma concentrations of CK", "value": 19.7, "unit": "ng/mL"}, {"measurement": "concentration at 9 h", "setting": "[1]; male, Sprague-Dawley, rat, plasma, iv, 10 mg/kg, 9 h, Mean±SD, read-out: Plasma concentrations of CK", "value": "12.4 ± 3.64", "unit": "ng/mL"}, {"measurement": "concentration at 9 h", "setting": "[1]; male, Sprague-Dawley, rat, plasma, iv, 10 mg/kg, 9 h, individual rats 1-3, read-out: Plasma concentrations of CK", "value": 9.16, "unit": "ng/mL"}, {"measurement": "AUC(0-inf)", "setting": "[1]; [5]", "value": "3790 ± 685", "unit": "ng·h/mL"}, {"measurement": "AUC(0-t)", "setting": "[1]; male, Sprague-Dawley, rat, plasma, iv, 10 mg/kg, Mean±SD, read-out: AUC(0-t)", "value": "3740 ± 684", "unit": "ng·h/mL"}, {"measurement": "MRT last", "setting": "[1]; [5]", "value": "21.6 ± 4.8", "unit": "min"}, {"measurement": "MRT inf", "setting": "[1]; male, Sprague-Dawley, rat, plasma, iv, 10 mg/kg, Mean±SD, read-out: MRT(0-∞)", "value": "34.2 ± 12.6", "unit": "min"}, {"measurement": "half-life", "setting": "[1]; [5]", "value": "186 ± 52.2", "unit": "min"}, {"measurement": "AUC(0-inf)", "setting": "[1]; [6]", "value": 4290, "unit": "ng·h/mL"}, {"measurement": "AUC(0-t)", "setting": "[1]; male, Sprague-Dawley, rat, plasma, iv, 10 mg/kg, individual rats 1-3, read-out: AUC(0-t)", "value": 4260, "unit": "ng·h/mL"}, {"measurement": "MRT last", "setting": "[1]; [6]", "value": 18, "unit": "min"}, {"measurement": "half-life", "setting": "[1]; [6]", "value": 137, "unit": "min"}, {"measurement": "exposure levels of CK in females versus males", "setting": "[2]; healthy Chinese subjects", "value": "higher"}, {"measurement": "dose-normalized Cmax and t1/2 in females versus males", "setting": "[2]; multiple-dose trial in humans, day 1 and day 15", "value": "significantly higher"}]}
